Experimental data: patent US20240016874A1, “COMPOSITIONS AND METHODS FOR PREVENTING AND TREATING CORONAVIRUSES” (priority 2020, published 2024)

Test system: SARS-CoV-2-PP (614G, Delta, UK, Brazil variants) infecting ACE2 expression cells
Format: cell-based

CCCCCCCCCCCCCCCC(=O)O [palmitic acid]
difference of effect between variants: a difference between the Brazil variant and the other variants | effect on variants when combined with Oleic acid or Linoleic acid: strongest inhibition on the Delta variant | inhibition of SARS-CoV-2-PP infection: good inhibitor

CC1=CC(=O)C(C(C)C)=CC1=O [thymoquinone]
inhibition of SARS-CoV-2-PP infection: good inhibitor
